# Data reported in PMC11855827, “High-Throughput Screening of Five Compound Libraries for Anthelmintic Activity and Toxicity Leads to the Discovery of Two Flavonoid Compounds” (International Journal of Molecular Sciences, 2025).
# System: C. elegans
# Settings: Table S2, C. elegans SS assay, 110 μM, averages of 4 data points
Structure (SMILES),Percentage of motility inhibition 0 h,Percentage of motility inhibition 24 h
CC(C)=CCc1c(O)cc(O)c2c(=O)c(O[C@@H]3O[C@@H](C)[C@H](O)[C@@H](O)[C@H]3O)c(-c3ccc(O)cc3)oc12 [IKarisoside A],32%,5%
COc1ccc(-c2oc3c(CC=C(C)C)c(O[C@@H]4O[C@H](CO)[C@@H](O)[C@H](O)[C@H]4O)cc(O)c3c(=O)c2O)cc1 [Icariside I],0%,23%
CC(C(O)c1ccc(O)cc1)N1CCC(Cc2ccccc2)CC1.CC(C(O)c1ccc(O)cc1)N1CCC(Cc2ccccc2)CC1.O=C(O)C(O)C(O)C(=O)O (stereo not drawn) [Ifenprodil (ta rtrate)],12%,15%
C[C@@H]1CC[C@]2(C(=O)O)CC[C@]3(C)C(=CC[C@@H]4[C@@]5(C)CC[C@H](O)[C@](C)(C(=O)O)[C@@H]5CC[C@]43C)[C@@H]2[C@]1(C)O [Ilexgenin A],27%,0%
C[C@H]1CC[C@]2(C(=O)O)CC[C@]3(C)C(=CC[C@@H]4[C@@]5(C)CC[C@H](O[C@@H]6OC[C@@H](O)[C@H](O)[C@H]6O[C@@H]6O[C@H](CO)[C@@H](O)[C@H](O)[C@H]6O)C(C)(C)[C@@H]5CC[C@]43C)[C@@H]2[C@]1(C)O [Ilexoside D],0%,22%
C[C@@H]1CC[C@]2(C(=O)O[C@@H]3O[C@H](CO)[C@@H](O)[C@H](O)[C@H]3O)CC[C@]3(C)C(=CC[C@@H]4[C@@]5(C)CC[C@H](O)[C@](C)(C(=O)O)[C@@H]5CC[C@]43C)[C@@H]2[C@]1(C)O [Ilexsaponin A],0%,12%
C[C@H]1CC[C@@H]2N(C1)C[C@H]1[C@@H]3C[C@H]4[C@@H](CC(=O)[C@H]5C[C@@H](O[C@@H]6O[C@H](CO)[C@@H](O)[C@H](O)[C@H]6O)CC[C@@]54C)[C@@H]3CC[C@H]1[C@]2(C)O [Imperialine 3‐β‐D‐glucoside],10%,10%
CC(=O)O[C@H]1CC/C(C)=C/CC/C(C)=C/C[C@]2(C(C)C)CC[C@@]1(C)O2 [Incensole Acetate],9%,17%
CC(C)(C)NC(=O)[C@@H]1CN(Cc2cccnc2)CCN1C[C@@H](O)C[C@@H](Cc1ccccc1)C(=O)N[C@H]1c2ccccc2C[C@H]1O.O=S(=O)(O)O [Indinavir (sulfate)],8%,10%
O=Cc1c[nH]c2ccccc12 [Indole‐3‐carboxaldehyde],0%,17%
"CC1=C[C@]23C(=O)[C@@H](C=C(COC(=O)c4ccccc4)[C@@H](O)[C@]2(O)[C@H]1OC(=O)c1ccccc1)[C@H]1[C@@H](C[C@H]3C)C1(C)C [Ingenol 3,20-dibenzoate]",0%,0%
"CC1=CC23C(=O)C(C=C4COC(C)(C)OC4C24OC(C)(C)OC14)C1C(CC3C)C1(C)C (stereo not drawn) [Ingenol-3,4,5,20-diacetonide]",1%,9%
"C/C=C(/C)C(=O)O[C@H]1C(C)=C[C@]23C(=O)[C@@H](C=C4COC(C)(C)O[C@H]4[C@]12O)[C@H]1[C@@H](C[C@H]3C)C1(C)C [Ingenol-5,20-acetonide-3-O-angelate]",0%,0%
C=C1C(=O)O[C@@H]2CC(C)=C([C@@H](C)CCCOC(C)=O)[C@@H](O)[C@H]12 [Inulicin],0%,16%
C=C[C@H]1[C@H](O[C@@H]2O[C@H](CO)[C@@H](O)[C@H](O)[C@H]2O)OC=C(C(=O)OC)[C@H]1C[C@@H]1c2cc(O)c(O)cc2CCN1C(C)=O [Ipecoside],0%,14%
CCc1c2c(nc3ccc(OC(=O)N4CCC(N5CCCCC5)CC4)cc13)-c1cc3c(c(=O)n1C2)COC(=O)[C@]3(O)CC.Cl [Irinotecan (hydrochloride)],0%,11%
COc1ccc(-c2coc3cc(O[C@@H]4O[C@H](CO)[C@@H](O)[C@H](O)[C@H]4O)c(OC)c(O)c3c2=O)cc1O [Iristectorin A],0%,2%
COc1cc(-c2coc3cc(O[C@@H]4O[C@H](CO)[C@@H](O)[C@H](O)[C@H]4O)c(OC)c(O)c3c2=O)ccc1O [Iristectorin B],5%,6%
CC(=O)O[C@@H]1[C@@H](O)[C@H](O[C@H]2CC[C@]34C[C@]35CC[C@]3(C)[C@@H]([C@@]6(C)CC[C@@H](C(C)(C)O)O6)[C@@H](O)C[C@@]3(C)[C@@H]5C[C@H](O[C@@H]3O[C@H](CO)[C@@H](O)[C@H](O)[C@H]3O)[C@H]4C2(C)C)OC[C@H]1O [Isoastragaloside II],0%,9%
CC(C)(O[C@@H]1O[C@H](CO)[C@@H](O)[C@H](O)[C@H]1O)[C@@H]1CC[C@](C)([C@H]2[C@@H](O)C[C@@]3(C)[C@@H]4C[C@H](O)[C@H]5C(C)(C)[C@@H](O[C@@H]6OC[C@@H](O)[C@H](O)[C@H]6O)CC[C@@]56C[C@@]46CC[C@]23C)O1 [Isoastragaloside IV],0%,0%

Structure (SMILES),Percentage of motility inhibition 0 h,Percentage of motility inhibition 24 h
CC(=O)O[C@H]1[C@H](O[C@H]2CC[C@]34C[C@]35CC[C@]3(C)[C@@H]([C@@]6(C)CC[C@@H](C(C)(C)O)O6)[C@@H](O)C[C@@]3(C)[C@@H]5C[C@H](O[C@@H]3O[C@H](CO)[C@@H](O)[C@H](O)[C@H]3O)[C@H]4C2(C)C)OC[C@@H](OC(C)=O)[C@@H]1O [Isoastragaloside I],12%,59%
Clc1ccc(C(Cn2ccnc2)OCc2c(Cl)cccc2Cl)c(Cl)c1.O=[N+]([O-])O (stereo not drawn) [Isoconazole (nitrate)],17%,4%
CC1(C)C2=CCCC(C)(C)[C@]23CC[C@H]1C3 [Isolongifolene],2%,39%
O=c1c2cc(O)c(O)cc2oc2c([C@@H]3O[C@H](CO)[C@@H](O)[C@H](O)[C@H]3O)c(O)cc(O)c12 [Isomangiferin],28%,46%
C[C@H](CC[C@@H](O[C@@H]1O[C@H](CO[C@@H]2O[C@H](CO)[C@@H](O)[C@H](O)[C@H]2O)[C@@H](O)[C@H](O)[C@H]1O[C@@H]1O[C@H](CO)[C@@H](O)[C@H](O)[C@H]1O)C(C)(C)O)[C@H]1CC[C@@]2(C)[C@@H]3CC=C4[C@@H](CC[C@H](O[C@@H]5O[C@H](CO)[C@@H](O[C@@H]6O[C@H](CO)[C@@H](O)[C@H](O)[C@H]6O)[C@H](O)[C@H]5O)C4(C)C)[C@]3(C)[C@H](O)C[C@]12C [Isomogroside V],28%,21%
COc1ccc([C@@H]2COc3cc(O[C@@H]4O[C@H](CO)[C@@H](O)[C@H](O)[C@H]4O)ccc3C2)c(O)c1OC [Isomucronulatol 7‐O‐glucoside],8%,10%
COc1ccc(C2COc3cc(O)ccc3C2)c(O)c1OC (stereo not drawn) [Isomucronulatol],7%,7%
COC(=O)C1=CO[C@@H](C)[C@@H]2CN3CC[C@@]4(C(=O)Nc5ccccc54)[C@@H]3C[C@H]12 [Isopteropodine],9%,0%
COc1cc(-c2oc3cc(O)cc(O)c3c(=O)c2O[C@@H]2O[C@H](CO)[C@@H](O)[C@H](O)[C@H]2O[C@@H]2O[C@@H](C)[C@H](O)[C@@H](O)[C@H]2O)ccc1O [Isorhamnetin‐3‐O‐neohespeidoside],45%,5%
COc1ccc([C@@H]2CC(=O)c3c(O)cc(O[C@@H]4O[C@H](CO)[C@@H](O)[C@H](O)[C@H]4O)cc3O2)cc1 [Isosakuranin],1%,2%
O=c1cc(-c2ccc(O)cc2)oc2c([C@@H]3O[C@H](CO)[C@@H](O)[C@H](O)[C@H]3O)c(O)c([C@@H]3OC[C@H](O)[C@H](O)[C@H]3O)c(O)c12 [Isoschaftoside],9%,0%
COc1cc(C2Oc3ccc([C@H]4Oc5cc(O)cc(O)c5C(=O)[C@@H]4O)cc3OC2CO)ccc1O (stereo partly drawn) [Isosilybin],2%,0%
COc1ccc(-c2cc(=O)c3c(OC)cc(OC)c(OC)c3o2)cc1OC [Isosinensetin],0%,2%
C[C@H]1CC[C@@H]2N(C1)C[C@H]1[C@@H]3C[C@H]4[C@@H](C[C@@H](O)[C@H]5C[C@@H](O)CC[C@@]54C)[C@@H]3CC[C@@H]1[C@]2(C)O [Isoverticine],0%,0%
C[C@@H]1O[C@@H](c2c(O)c([C@@H]3O[C@H](CO)[C@@H](O)[C@H](O)[C@H]3O)c3oc(-c4ccc(O)cc4)cc(=O)c3c2O)[C@H](O)[C@H](O)[C@H]1O [Isoviolanthin],21%,2%
COc1cc(-c2cc(=O)c3c(O)c(OC)c(O)cc3o2)ccc1O [Jaceosidin],0%,5%
COc1cc2c(cc1O)CC[n+]1cc3c(OC)c(OC)ccc3cc1-2.[Cl-] [Jatrorrhizine (chloride)],33%,4%
COc1cc2c(cc1O)CC[n+]1cc3c(OC)c(OC)ccc3cc1-2.[OH-] [Jatrorrhizine (hydroxide)],8%,5%
Oc1cnc2c(O)cccc2c1 [Jineol],0%,0%
